Test results reported in patent US20050112199A1, “Therapeutic regimens for administering drug combinations” (priority 2003, published 2005).
Like-named read-outs stand apart in the source and are kept apart here. Each block holds one compound with its values, some of them ahead of it.

What was measured:
[1] = monotherapy, cited from earlier work
[2] = PK study of paroxetine and prednisolone administered orally to humans; format: in vivo, human; conditions: paroxetine/prednisolone combination PK study, oral
[3] = PK study of amoxapine and prednisolone administered orally to humans; conditions: amoxapine/prednisolone combination PK study, oral

Mean Tmax ([2]; 3 mg): 1.9 h
Mean elimination half life ([2]; 3 mg): 2.7 h
Mean Tmax ([3]; 3 mg): 1.9 h
Mean elimination half life ([3]; 3 mg): 4.5 h
SMILES: C[C@]12C=CC(=O)C=C1CC[C@@H]1[C@@H]2[C@@H](O)C[C@@]2(C)[C@H]1CC[C@]2(O)C(=O)CO [Prednisolone]
Mean Tmax ([1]; oral, 3 mg): 1.9 h
Mean elimination half life ([1]; oral, 3 mg): 2.7 h

Mean Tmax ([2]; 20 mg): 7 h
Mean elimination half life ([2]; 20 mg): 20.2 h
SMILES: Fc1ccc([C@@H]2CCNC[C@H]2COc2ccc3c(c2)OCO3)cc1 [Paroxetine]

Mean Tmax ([3]; 100 mg): 2.4 h
Mean elimination half life ([3]; 100 mg): 9.7 h
SMILES: Clc1ccc2c(c1)C(N1CCNCC1)=Nc1ccccc1O2 [Amoxapine]

Continued, compound first:

SMILES: OCCN(CCO)c1nc(N2CCCCC2)c2nc(N(CCO)CCO)nc(N3CCCCC3)c2n1 [Dipyridamole, 2,6-bis(diethanolamino)-4,8-dipiperidinopyrimido(5,4-d)pyrimidine]
Mean Tmax ([1]; oral, 25 mg): 0.75 h
Mean elimination half life ([1]; oral, 25 mg): 10 h

SMILES: CCCC1O[C@@H]2C[C@H]3[C@@H]4CCC5=CC(=O)C=C[C@]5(C)[C@H]4[C@@H](O)C[C@]3(C)[C@]2(C(=O)CO)O1 (stereo partly shown) [Budesonide]
Mean Tmax ([1]; inhaled, 200 μg): 0.5 h
Mean elimination half life (Hours) ([1]; inhaled, 200 μg): ca. 2 Hours

SMILES: CNCCC=C1c2ccccc2CCc2ccccc21 [Nortriptyline]
Mean Tmax ([1]; oral, 25 mg): 8 h
Mean elimination half life ([1]; oral, 25 mg): 16 h
